# Results: patent publication EP0432974A1, “Cyclic renin inhibitors” (MERCK & CO. INC., priority 1989, dated 1991)
# Square brackets hold non-standard residues; d marks the D form. Peptide text beside a SMILES is read from it. * marks the point of attachment. Sta = CC(C)C[C@H](N)[C@@H](O)CC(=O)O; Isovaleryl = CC(C)CC(=O)*
# Legend:
# [1] = tested on: sodium-deficient Rhesus monkeys; test: intravenous evaluation of renin inhibitors in conscious sodium-deficient Rhesus monkeys (blood pressure lowering); assay type: in vivo; settings: i.v. bolus
# Excerpt: The following methods were used for in vivo evaluation of the renin inhibitors of Formula I : Intravenous evaluation of renin inhibitors in concious sodium-deficient Rhesus monkeys : Rhesus monkeys, male and female, weighing 2.6-4.5 Kg, were surgically prepared with chronic arterial and venous catheters and vascular access ports for direct monitoring of mean arterial pressure (MAP) and heart rate (HR). The animals were maintained on a low sodium diet (1.2 mmol Nalday) plus friut for a week, and administered LASIX (furosemide) at 2.5 mg/Kg, intramuscularly the evening prior to the experiment The animals had been trained to sit quietly in the chairs with water ad libium for the duration of the experiment. The inhibitors were administered by bolus injection using 0.5% acetic acid-5% dextrose in water as the vehicle (0.4 ml/Kg), and MAP and HR were measured. Blood samples were withdrawn at different time intervals beginning at the nadir of hypotensive response. PRAwas determined as described above. […] A projected ED50 dose for each inhibitor was calculated using the following furmula : ED50 (Test Inhibitor, umoles/Kg) = ED50 (SCRIP) X [ICso (Test Inhibitor)/ICso (SCRIP)], where the IC50 values were determined against human plasma renin. […] Percent inhibition of monkey PRA, changes in MAP and HR were calculated and plotted against time. […]
# human plasma renin = human plasma renin IC50 determination at pH 7.4; assay type: biochemical
# Method: The following method was used for in vitro evaluation of the renin inhibitors of Formula I : The human plasma renin IC50 values for inhibitors of Formula I were determined at pH 7.4 following the procedure described in J. Boger, L.S. Payne, D.S. Perlow, N.S. Lohr, M. Poe, E.H. Blaine, E.H. Ulm, T.W. Schorn, B.I. Lamont, T.Y. Lin, M. Kawai, D.H. Rich and D.F. Veber, J. Med. Chem., 28,1779 (1985).
smiles,measurement,setting,value
"CC(C)CC(=O)N[C@@H](Cc1c[nH]cn1)C(=O)N1CCC[C@H]1C(=O)N[C@@H](Cc1ccccc1)C(=O)N[C@@H](Cc1c[nH]cn1)C(=O)N[C@@H](CC(C)C)[C@@H](O)CC(=O)N[C@@H](CC(C)C)C(=O)N[C@@H](Cc1ccccc1)C(N)=O [SCRIP, Iva-His-Pro-Phe-His-Sta-Leu-Phe-NH2] (Isovaleryl-HPFH[Sta]LF-NH2)",ED50 (i.v. dose required to lower blood pressure by 50% of the maximal response),[1],0.039 µmol/kg
same,IC50,human plasma renin,3.7 nM
